Test results as given in patent US9693556B2, “Herbicidal pyridazinone derivatives” (SYNGENTA LIMITED, priority 2011, dated 2017).

What was measured:
Assay type in all cases: in vivo
[1] = test system: Amaranthus retoflexus (AMARE); experiment: Pre-emergence herbicidal glasshouse test on Amaranthus retoflexus; conditions: pre-emergence; 1000 g/h; evaluated after 13 days
Outline: (§1)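 Read-out: percentage herbicidal damage 13 days after spraying, given on a five-point scale (5=80-100%, 4=60-79%, 3=40-59%, 2=20-39%, 1=0-19%). Pots of standard soil; application at 1000 g/h, one day post-sowing for pre-emergence, eight days for post-emergence.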

Solanum nigrum (SOLNI) [2] = experiment: Pre-emergence herbicidal glasshouse test on Solanum nigrum; conditions: pre-emergence; 1000 g/h; evaluated after 13 days
Outline: as §1

[3] = test system: Echinochloa crus-galli (ECHCG); experiment: Pre-emergence herbicidal glasshouse test on Echinochloa crus-galli; conditions: pre-emergence; 1000 g/h; evaluated after 13 days
Outline: as §1

Setaria faberi (SETFA) [4] = experiment: Pre-emergence herbicidal glasshouse test on Setaria faberi; conditions: pre-emergence; 1000 g/h; evaluated after 13 days
Outline: as §1

[5] = test system: Ipomoea hederacea (IPOHE); experiment: Pre-emergence herbicidal glasshouse test on Ipomoea hederacea; conditions: pre-emergence; 1000 g/h; evaluated after 13 days
Outline: as §1

[6] = test system: Alopecurus myosuroides (ALOMY); experiment: Post-emergence herbicidal glasshouse test on Alopecurus myosuroides; conditions: post-emergence; 1000 g/h; evaluated after 13 days
Outline: as §1

Setaria faberi (SETFA) [7] = experiment: Post-emergence herbicidal glasshouse test on Setaria faberi; conditions: post-emergence; 1000 g/h; evaluated after 13 days
Outline: as §1

[8] = test system: Echinochloa crus-galli (ECHCG); experiment: Post-emergence herbicidal glasshouse test on Echinochloa crus-galli; conditions: post-emergence; 1000 g/h; evaluated after 13 days
Outline: as §1

[9] = test system: Ipomoea hederacea (IPOHE); experiment: Post-emergence herbicidal glasshouse test on Ipomoea hederacea; conditions: post-emergence; 1000 g/h; evaluated after 13 days
Outline: as §1

[10] = test system: Amaranthus retoflexus (AMARE); experiment: Post-emergence herbicidal glasshouse test on Amaranthus retoflexus; conditions: post-emergence; 1000 g/h; evaluated after 13 days
Outline: as §1

[11] = test system: Alopecurus myosuroides (ALOMY); experiment: Pre-emergence herbicidal glasshouse test on Alopecurus myosuroides; conditions: pre-emergence; 1000 g/h; evaluated after 13 days
Outline: as §1

Solanum nigrum (SOLNI) [12] = experiment: Post-emergence herbicidal glasshouse test on Solanum nigrum; conditions: post-emergence; 1000 g/h; evaluated after 13 days
Outline: as §1

| Compound | PRE Application AMARE herbicidal damage (five point scale) [1] | PRE Application SOLNI herbicidal damage (five point scale) (Solanum nigrum (SOLNI) [2]) | PRE Application ECHCG herbicidal damage (five point scale) [3] | PRE Application SETFA herbicidal damage (five point scale) (Setaria faberi (SETFA) [4]) | PRE Application IPOHE herbicidal damage (five point scale) [5] | POST Application ALOMY herbicidal damage (five point scale) [6] | POST Application SETFA herbicidal damage (five point scale) (Setaria faberi (SETFA) [7]) | POST Application ECHCG herbicidal damage (five point scale) [8] | POST Application IPOHE herbicidal damage (five point scale) [9] | POST Application AMARE herbicidal damage (five point scale) [10] | PRE Application ALOMY herbicidal damage (five point scale) [11] | POST Application SOLNI herbicidal damage (five point scale) (Solanum nigrum (SOLNI) [12]) |
| --- | --- | --- | --- | --- | --- | --- | --- | --- | --- | --- | --- | --- |
| Cc1c(Cl)cccc1-c1c(C(F)(F)F)ccn(-c2cnn(C)c(=O)c2O)c1=O [Compound 7.030] | 5 (5=80-100% damage) | 5 (5=80-100% damage) | 5 (5=80-100% damage) | 4 (4=60-79% damage) | 4 (4=60-79% damage) | 5 (5=80-100% damage) | 5 (5=80-100% damage) | 5 (5=80-100% damage) | 5 (5=80-100% damage) | 5 (5=80-100% damage) | 5 (5=80-100% damage) | 5 (5=80-100% damage) |
| Cn1ncc(-n2ccc(C(F)(F)F)c(-c3ccc(C#N)cc3)c2=O)c(O)c1=O [Compound 7.031] | 5 (5=80-100% damage) | 5 (5=80-100% damage) | 5 (5=80-100% damage) | 5 (5=80-100% damage) | 5 (5=80-100% damage) | 5 (5=80-100% damage) | 5 (5=80-100% damage) | 5 (5=80-100% damage) | 5 (5=80-100% damage) | 5 (5=80-100% damage) | 5 (5=80-100% damage) | 5 (5=80-100% damage) |
| Cc1ccc(Cl)c(-c2c(C(F)(F)F)ccn(-c3cnn(C)c(=O)c3O)c2=O)c1 [Compound 7.032] | 5 (5=80-100% damage) | 5 (5=80-100% damage) | 5 (5=80-100% damage) | 5 (5=80-100% damage) | 5 (5=80-100% damage) | 3 (3=40-59% damage) | 5 (5=80-100% damage) | 5 (5=80-100% damage) | 5 (5=80-100% damage) | 5 (5=80-100% damage) | 4 (4=60-79% damage) | 5 (5=80-100% damage) |
| COc1ccc(-c2c(C(F)(F)F)ccn(-c3cnn(C)c(=O)c3O)c2=O)cc1 [Compound 7.033] | 5 (5=80-100% damage) | 5 (5=80-100% damage) | 5 (5=80-100% damage) | 5 (5=80-100% damage) | 4 (4=60-79% damage) | 5 (5=80-100% damage) | 5 (5=80-100% damage) | 5 (5=80-100% damage) | 3 (3=40-59% damage) | 5 (5=80-100% damage) | 5 (5=80-100% damage) | 5 (5=80-100% damage) |
| C=Cc1ccccc1-c1c(C(F)(F)F)ccn(-c2cnn(C)c(=O)c2O)c1=O [Compound 7.034] | 5 (5=80-100% damage) | 5 (5=80-100% damage) | 1 (1=0-19% damage) | 1 (1=0-19% damage) | 1 (1=0-19% damage) | 1 (1=0-19% damage) | 3 (3=40-59% damage) | 3 (3=40-59% damage) | 2 (2=20-39% damage) | 5 (5=80-100% damage) | 2 (2=20-39% damage) | 5 (5=80-100% damage) |
| Cn1ncc(-n2ccc(C(F)(F)F)c(-c3ccc(C(F)(F)F)cc3)c2=O)c(O)c1=O [Compound 7.035] | 5 (5=80-100% damage) | 5 (5=80-100% damage) | 5 (5=80-100% damage) | 5 (5=80-100% damage) | 3 (3=40-59% damage) | 5 (5=80-100% damage) | 5 (5=80-100% damage) | 5 (5=80-100% damage) | 4 (4=60-79% damage) | 5 (5=80-100% damage) | 5 (5=80-100% damage) | 5 (5=80-100% damage) |
| CSc1ccc(-c2c(C(F)(F)F)ccn(-c3cnn(C)c(=O)c3O)c2=O)cc1 [Compound 7.036] | 5 (5=80-100% damage) | 5 (5=80-100% damage) | 1 (1=0-19% damage) | 2 (2=20-39% damage) | 4 (4=60-79% damage) | 2 (2=20-39% damage) | 3 (3=40-59% damage) | 4 (4=60-79% damage) | 4 (4=60-79% damage) | 5 (5=80-100% damage) | 2 (2=20-39% damage) | 5 (5=80-100% damage) |
| Cc1cc(Cl)ccc1-c1c(C(F)(F)F)ccn(-c2cnn(C)c(=O)c2O)c1=O [Compound 7.038] | 5 (5=80-100% damage) | 5 (5=80-100% damage) | 5 (5=80-100% damage) | 3 (3=40-59% damage) | 4 (4=60-79% damage) | 5 (5=80-100% damage) | 3 (3=40-59% damage) | 5 (5=80-100% damage) | 5 (5=80-100% damage) | 5 (5=80-100% damage) | 5 (5=80-100% damage) | 5 (5=80-100% damage) |
